Laboratory results from patent publication US20260217730A1, “PROTEOLYSIS TARGETING CHIMERA COMPOUND” (BEIJING TIDE PHARMACEUTICAL CO., LTD., priority 2023, published 2026).

Columns and labels:
[1] = system: SUM159 triple-negative breast cancer cell line; experiment: CCK8 method, cell viability; assay type: cell-based; conditions: SUM159 cells, 72 hours, CCK8 absorbance
Protocol: 2. The Biological Activity of Compounds was Determined by CCK8 Method Using the Following Method:
Reagents: Complete RPMI 1640 medium was purchased from Gibco. Fetal bovine serum was purchased from ThermoFisher. Trypsin was produced by ThermoFisher. SHP-2 antibody was produced by CST. CCK8 was produced by abcam.
(§1) Cell line: SUM159 triple-negative breast cancer cell line was established by Rovera.
Method for assay: Cells growth in the logarithmic phase were collected and suspended in a RPMI 1640 medium containing 10% fetal bovine serum, which was then gently pipetted into a single-cell suspension. Viable cells were counted under microscope. The cells were seeded into a 96-well plate at a density of 3-6*10^3 cells per well and cultured in an incubator for 24 hours. Test compounds were diluted in multiples, and then the cell culture supernatant was added. The cells were cultured for another 72 hours, and 10 μL of CCK8 detection solution was added to each well. After incubating for 1-4 hours, the absorbance was measured using a microplate reader.

PAMPA experiment = assay type: in vitro ADME; conditions: 1.8% lecithin membrane, drug test solution 10 μM, 37° C., 16 hours
Protocol: Reagents: lecithin, n-dodecane, HEPES, dimethyl sulfoxide (DMSO), acetonitrile
Instrument and equipment: Multiscreen 96-well plate (up Merck Millipore), Multiscreen 96-well plate (down Merck Millipore), electronic analytical balance, constant temperature incubator, high performance liquid chromatography-mass spectrometry (LC-MS)
Method for operation: Preparation of PAMPA artificial membrane: about 18 mg of lecithin was weighed accurately, and placed into a 1.5 mL EP tube. 1 mL of n-dodecane was added. The mixture was dissolved by ultrasonication, and then thoroughly mixed to obtain a 1.8% lecithin membrane.
The upper layer of the PAMPA model was the plate lid, the middle layer was the 96-well filter plate (donor plate), and the lower layer was the accepter plate. 5 μL of the above 1.8% lecithin membrane was added to the filter membrane of the donor plate, and then 150 μL of the drug test solution (10 μM) was added. 300 μL of HEPES solution was added to each well of the accepter plate (completed within 10 minutes). The donor plate was slowly placed onto the accepter plate and incubated at 37° C. for 16 hours.
LC-MS detection: 100 μL of the positive control and the test compound was weighed respectively, to which 100 μL of acetonitrile-DMSO solution [acetonitrile-DMSO (4:1)] was added. The mixture was mixed well, and detected by LC-MS at OH and 16H. The corresponding molecular ion peak was extracted and the peak area was obtained; After the PAMPA model was incubated at 37° C. for 16 h, 100 μL of the test solution in the donor plate and the accepter plate was weighed respectively, to which 100 μL of acetonitrile-DMSO solution [acetonitrile-DMSO (4:1)] was added. The mixture was mixed well, and detected by LC-MS. The corresponding molecular ion peak was extracted, the peak area was obtained, and the concentration was calculated.

SHP2 = target: T1, SHP2 (Homo sapiens, UniProt Q06124); experiment: Western blot, degradation of SHP2 in vitro; assay type: cell-based; conditions: degradation of SHP2 in SUM159 cells, 24 hours with compound
T1 construct: endogenous in cells; host or cells: SUM159 triple-negative breast cancer cells
T1 sequence (Q06124 1-593): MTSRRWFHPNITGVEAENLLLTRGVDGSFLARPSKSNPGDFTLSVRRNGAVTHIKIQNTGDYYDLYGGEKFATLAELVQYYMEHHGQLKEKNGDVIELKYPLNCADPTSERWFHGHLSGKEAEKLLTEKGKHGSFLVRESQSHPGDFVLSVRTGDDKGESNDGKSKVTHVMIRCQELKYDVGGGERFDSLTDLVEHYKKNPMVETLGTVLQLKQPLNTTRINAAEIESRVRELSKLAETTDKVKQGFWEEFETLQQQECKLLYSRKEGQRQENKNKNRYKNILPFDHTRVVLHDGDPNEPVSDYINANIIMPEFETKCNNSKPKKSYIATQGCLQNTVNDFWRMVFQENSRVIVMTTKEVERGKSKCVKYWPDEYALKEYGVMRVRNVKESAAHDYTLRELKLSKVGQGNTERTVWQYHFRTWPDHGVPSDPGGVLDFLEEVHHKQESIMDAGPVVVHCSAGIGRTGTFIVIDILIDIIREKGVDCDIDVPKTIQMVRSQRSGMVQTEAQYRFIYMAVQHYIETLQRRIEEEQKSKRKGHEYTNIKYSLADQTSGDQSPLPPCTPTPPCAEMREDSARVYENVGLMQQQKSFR
Protocol: 1. The Biological Activity of Compounds was Determined by Western Blot Method Using the Following Method:
Reagents: Complete 1640 medium was purchased from Gibco. Fetal bovine serum was purchased from ThermoFisher. Trypsin was produced by ThermoFisher. SHP-2 antibody was produced by CST.
as §1
Method for assay: Cells growth in the logarithmic phase were collected and suspended in a 1640 medium containing 10% fetal bovine serum, which was then gently pipetted into a single-cell suspension. Viable cells were counted under microscope. 9 mL of the cell suspension was seeded and cultured in a 10 cm culture dish at a final concentration of 2×10^5 cells/mL. After cells were pre-cultured for 24 hours at 37° C. and 5% CO2, different concentrations of solutions of the compounds of the present disclosure in DMSO were added (the final concentration of DMSO was no more than 0.5%), and the negative control group was added with the same volume of DMSO alone. After cultured for another 24 hours, all cells were collected and washed with PBS. The cells were lysed with RIPA lysis buffer, and the lysates were collected into a 1.7 mL centrifuge tube. The proteins were fully denatured after heating in the metal bath at 95° C. for 10 minutes. After loading the samples onto the gel for Western blotting, electrophoresis was performed at a constant voltage of 100V until the band of bromophenol blue reached the terminal point. The proteins were transferred onto a cellulose acetate membrane using the wet transfer method at a constant current of 300-500 mA for 45 minutes, and the proteins were blocked with 5% BSA at room temperature for 1-2 hours. The proteins were incubated with primary antibody diluted 1:500 to 1:8000 at room temperature for 2 hours, and then washed three times. Subsequently, the proteins were incubated with secondary antibody at room temperature for 1 hour. The detection of proteins was performed using ultrasensitive ECL luminescent liquid such as Enlight, and signals were captured using an automatic X-ray film developing machine. For the test results, see the in vitro Western Blot experiment of Example 1 and the in vitro Western Blot experiment of Example 3.
The compounds of the present disclosure have good in vitro anti-solid tumor and anti-blood tumor activities and have low toxicity to normal cells.

Row | SMILES | IC50 [1] | PAMPA (−Log Pe) (PAMPA experiment) | DC50 (SHP2)
1 | O=C1OCc2cc3oc(cc(=O)c3cc2I)-c2ccc(cc2Cl)OCCOC/C=C\COCCOc2ccc3c(c2)CN(C3=O)C2CCC(=O)N(COC1=O)C2=O (centres unmarked) [Example 3] | 7.43 nM | 5.94 | 37 nM
2 | O=C1CC(=O)OCN2C(=O)CCC(C2=O)N2Cc3cc(ccc3C2=O)OCCCC/C=C\CCCCOc2ccc(c(Cl)c2)-c2cc(=O)c3ccc(cc3o2)CO1 (centres unmarked) [Example 4] | 718 nM | 6.11 | 
3 | N[C@H]1CCC(=O)OCc2ccc3c(=O)cc(oc3c2)-c2ccc(cc2Cl)OCCOC/C=C/COCCOc2ccc3c(c2)CN(C3=O)C2CCC(=O)N(COC1=O)C2=O (some centres unmarked) [Example 8] | 5.33 nM | 4.68 | 
4 | CN1CC(=O)OCc2ccc3c(=O)cc(oc3c2)-c2ccc(cc2Cl)OCCOC/C=C/COCCOc2ccc3c(c2)CN(C3=O)C2CCC(=O)N(COC(=O)C1)C2=O (centres unmarked) [Example 9] | 2.39 nM | 5.52 | 4.21 nM
5 | CN1CC(=O)OCc2ccc3c(=O)cc(oc3c2)-c2ccc(cc2Cl)OCCOCCCCOCCOc2ccc3c(c2)CN(C3=O)C2CCC(=O)N(COC(=O)C1)C2=O (centres unmarked) [Example 10] | 3.5 nM | 5.56 | 5.94 nM

Second part, the compound after the results:

Row | IC50 [1] | PAMPA (−Log Pe) (PAMPA experiment) | DC50 (SHP2) | SMILES
6 | 28.8 nM | 6.71 | 210 nM | O=C1CC(=O)OCN2C(=O)CCC(C2=O)N2Cc3cc(ccc3C2=O)OCCOC/C=C\COCCOc2ccc(c(Cl)c2)-c2cc(=O)c3cc(I)c(cc3o2)CO1 (centres unmarked) [Example 1]
7 | 1000 nM | 6.0 |  | O=C1CCC2C(=O)N1COP(=O)(O)OCc1cc3oc(cc(=O)c3cc1I)-c1ccc(cc1Cl)OCCOC/C=C\COCCOc1ccc3c(c1)C(=O)N2C3=O (centres unmarked) [Example 2]
8 | 200 nM | 5.78 | 500 nM | O=C1OCc2cc3oc(cc(=O)c3cc2I)-c2ccc(cc2Cl)OCCOC/C=C\COCCOc2ccc3c(c2)CN(C3=O)C2CCC(=O)N(COC(=O)c3cccc1c3)C2=O (centres unmarked) [Example 5]
9 | > 5000 nM | 8.55 | 10 nM | O=C1OCc2ccc3c(=O)cc(oc3c2)-c2ccc(cc2Cl)OCCCC/C=C/CCCCOc2ccc3c(c2)CN(C3=O)C2CCC(=O)N(COC(=O)c3cccc1c3)C2=O (centres unmarked) [Example 6]
10 | 23.1 nM |  | 188 nM | O=C1CC(=O)OCN2C(=O)CCC(C2=O)N2Cc3cc(ccc3C2=O)OCCOC/C=C\COCCOc2ccc(c(Cl)c2)-c2cc(=O)c3ccc(cc3o2)CO1 (centres unmarked) [Example 7]
